Ends that are not written are not given here.
How the values were obtained:
Format in all cases: cell-based
[1] = test system: human skin epithelial cells (CRL-2592); assay: In vitro scratch wound closure of skin epithelial cell monolayer; details: for W-size (wound size) 0 hr: prior to peptide treatment; for W-size (wound size) 6 hr / % closure 6 hr / W-size (wound size) 10 hr / % closure 10 hr: peptide 20 to 40 μg/ml; for % closure 6 hr: PBS controls 19.40%, 19.20%; for % closure 10 hr: PBS controls 41.70%, 42.30%; for wound closure compared to PBS alone (in words): epithelial cell monolayer
Protocol: Wound healing experiments were performed on monolayers of human skin epithelial cells (CRL-2592) plated onto 12-well plates. Cells were serum-starved for 24 hours before experimentation. Confluent monolayers of CRL-2592 were wounded using a P200 (200-μL) pipette tip. The wounds were washed and picture-documented prior to peptide treatment. Peptides were added to a final concentration from 20 to 40 μg/ml. Cells were kept in an incubator at 37° C., 5% CO2, and 92% humidity, except when images were being captured for a short period at room temperature. Wound closure was followed at 6-hour and 10-hour time points. PBS-treated wounds were used as negative controls for comparison purposes.

Human dermal fibroblasts = assay: SIRCOL collagen assay: soluble collagen released by dermal fibroblasts incubated with peptides; details: for Released collagen (μg/mL) 24 h / Released collagen (μg/mL) 48 h: peptide 50 μg/mL (per Table 5); for Collagen / Collagen (μg): * = may not be significant, detection limit 2.5 μg; for Collagen produced (μg/mL) 24 hrs / Collagen produced (μg/mL) 48 hrs: [Peptide] 50 μg/mL; for Significant release of collagen at 24 h and 48 h: 25 μg/mL considered significant
Protocol: Several sequences identified in Examples 1 and 2 were synthesized using standard peptide chemistry and assayed for the stimulation of collagen from dermal fibroblasts. The synthesized peptides were amidated at the C-terminus, which rendered the tetrapeptides less susceptible to protease degradation and increased their solubility compared to the free acid forms. Human dermal fibroblasts were incubated in 96-well plates at 37° C. and 5% CO2 for 24 and 48 hours in 150 μL complete cell culture media (Cascade Biologics, Portland, Oreg.; Cat. No. M-106-500), supplemented with Low Serum Growth Supplement (Cascade Biologics, Portland, Oreg.; Cat. No. […] Each well was seeded with 10,000 cells. Following the incubation, 100-μL medium samples were recovered from each well and assayed for collagen production
The assays were performed by Tebu-bio Laboratories (France) using the SIRCOL™ Collagen Assay Kit (Biocolor Assays, UK) following the manufacturer's protocol. The SIRCOL™ Collagen Assay is a quantitative dye-binding method designed for the analysis of soluble collagens released into culture medium by mammalian cells during in vitro culture. The collagen of the tested samples binds to the anionic SIRCOL™ dye. The collagen-dye complexes precipitate out of solution and are pelleted by centrifugation. The recovered collagen-dye pellet was dissolved in an alkaline solution prior to absorbance measurements. Duplicate measurements were taken at the 24 and 48 hour times from two separate samples. The four measurements for each sample were averaged. The absorbance of reagent blanks, collagen standards, and samples were measured at 560 nm. The reagent blank absorbance was subtracted from the absorbance from each sample at 24 and 48 hours.
Two separate data sets were used to generate two collagen standard calibration curves. The first calibration curve was generated for purposes of calculating the quantity of collagen in samples H6 (combination of SEQ ID NOs:1-4), […] (SEQ ID NOs:1-8, respectively) and H15 (combination of SEQ ID NOs:5-8). The second calibration curve was generated for calculating the quantity of collagen in samples H16 (SEQ ID NO:9), H21-23 (SEQ ID NOs:10-12, respectively), H25-26 (SEQ ID NOs:13-14, respectively), or H29-30 (SEQ ID NOs:15-16, respectively), H32 (SEQ ID NO:17), H33 (combination of SEQ ID NOs:9-12), H34 (combination of SEQ ID NOs:11-14), H35 (combination of SEQ ID NOs:13-16), H36 (combination of SEQ ID NOs:1, 6, 5, 8), H37 (SEQ ID NO: 17) and H38 (SEQ ID NO:8) from the absorbance measurements was created by plotting the Abs560nm of the known collagen standards versus the respective concentrations of the collagen standards (in micrograms) each time a series of assays were performed. With respect to each data set, the same calibration curve was used for samples taken at the 24 and 48 hour times (Tables 2A and 2B). Accordingly, different standard curves were prepared immediately prior to performing each series of assays.
A linear regression was performed from plotting the Abs560nm values versus concentrations of the respective collagen standards using MICROSOFT EXCEL™. […] As the results were identical, only the 24-hour time period was used for the second series calibration curves. The formula of the line obtained on assay date 1 and assay date 2 of the second series of samples was y=0.0178x and y=0.0162x, respectively. The peptide LL-37 (SEQ ID NO:18) was used as a positive control as it has been widely reported to have an impact upon wound healing in man (Heilborn et al., The Cathelicidin Anti-Microbial Peptide LL-37 Is Involved In The Re-Epithelialization Of Human Skin Wounds And Is Lacking In Chronic Ulcer Epithelium, J. Invest. Dermato. 120:379-89 (2003). The assay detection limit defined by the manufacturer is 2.5 μg. […]

[2] = test system: human skin fibroblast monolayer; assay: Wound closure in skin fibroblast monolayer (data not shown)
Description: In vitro monolayer wound closure is a result of cell migration, which is important in many biological processes such as embryogenesis, angiogenesis, inflammatory reactions and wound repair. These processes are thought to be regulated by interactions with other cells, cytokines and ECM proteins.

[3] = check mark = yes, peptide 50 μg/mL
[4] = 24 hours, peptide 50 μg/mL, second series
[5] = 48 hours, peptide 50 μg/mL, second series

Substance | W-size (wound size) 0 hr [1] | W-size (wound size) 6 hr [1] | % closure 6 hr [1] | W-size (wound size) 10 hr [1] | % closure 10 hr [1] | wound closure compared to PBS alone (in words) [1] | Released collagen (μg/mL) 24 h (Human dermal fibroblasts) | Collagen produced (μg/mL) 24 hrs (Human dermal fibroblasts) | Released collagen (μg/mL) 48 h (Human dermal fibroblasts) | Collagen produced (μg/mL) 48 hrs (Human dermal fibroblasts) | Decrease in collagen release at 48 h v. 24 h (Human dermal fibroblasts; [3]) | Average (A560 nm) (Human dermal fibroblasts; [4]) | Average minus blank (A560 nm) (Human dermal fibroblasts; [4]) | Collagen (Human dermal fibroblasts; [4]) | Average (A560 nm) (Human dermal fibroblasts; [5]) | Average minus blank (A560 nm) (Human dermal fibroblasts; [5]) | Collagen (Human dermal fibroblasts; [5]) | Significant release of collagen at 24 h and 48 h (Human dermal fibroblasts; [3]) | Collagen (μg) (Human dermal fibroblasts; [4]) | Collagen (μg) (Human dermal fibroblasts; [5]) | other results
GEPG (Synthetic Peptide H11) | 48 arbitrary | 39 arbitrary | 19% | 30 arbitrary | 37.50% | does not enhance wound closure or epithelial cell migration to any great extent | 45 µg/mL | 45 µg/mL | 21 µg/mL | 21 µg/mL | ✓ |  |  |  |  |  |  |  |  |  | Average (A560 nm) (Human dermal fibroblasts; 24 hours, peptide 50 μg/mL): 0.14; Average minus blank (A560 nm) (Human dermal fibroblasts; 24 hours, peptide 50 μg/mL): 0.06; Collagen (Human dermal fibroblasts; 24 hours, peptide 50 μg/mL, 100 μL medium sample): 4.5 µg; Average (A560 nm) (Human dermal fibroblasts; 48 hours, peptide 50 μg/mL): 0.15; Average minus blank (A560 nm) (Human dermal fibroblasts; 48 hours, peptide 50 μg/mL): 0.03; Collagen (μg) (Human dermal fibroblasts; 48 hours, peptide 50 μg/mL, 100 μL medium sample): 2.1* μg
PGPP (Synthetic Peptide H26) | 25 arbitrary | 12 arbitrary | 52% | 2.75 arbitrary | 89% | significantly induces wound closure | 29 µg/mL | 29 µg/mL | 35 µg/mL | 35 µg/mL |  | 0.13 | 0.05 | 2.9 µg | 0.12 | 0.06 | 3.5 µg | ✓ |  |  | wound closure in fibroblast monolayer (in words) [2]: does not induce wound closure
PKGP (PKGP-NH2) [H21] |  |  |  |  |  |  | 25 µg/mL | 25 µg/mL | 29 µg/mL | 29 µg/mL |  | 0.12 | 0.04 | 2.5 µg | 0.11 | 0.05 | 2.9 µg | ✓ |  |  | 
PMGP (PMGP-NH2) [H25] |  |  |  |  |  |  | 13 µg/mL | 13 µg/mL | 7 µg/mL | 7 µg/mL | ✓ | 0.10 | 0.02 |  | 0.07 | 0.01 |  |  | 1.3* μg | 0.7* μg | 
PQGP (PQGP-NH2) [H29] |  |  |  |  |  |  | 4 µg/mL | 4 µg/mL | 19 µg/mL | 19 µg/mL |  | 0.09 | 0.01 |  | 0.09 | 0.03 |  |  | 0.4* μg | 1.9* μg | Increase in collagen release at 48 h v. 24 h (Human dermal fibroblasts; [3]): ✓

Reference: patent US10376557B2, “Peptide fragments for inducing synthesis of extracellular matrix proteins” (HELIX BIOMEDIX, INC., priority 2006, dated 2019)
